Assay results as given in patent US9255100B2 (BAYER INTELLECTUAL PROPERTY GMBH, priority 2010, dated 2016).

Biological target: T1, N-terminally GST-tagged human full length recombinant Mps-1 kinase (Homo sapiens, UniProt P33981)
T1 construct: N-terminally GST-tagged human full length recombinant Mps-1 kinase; purchased Invitrogen, Karslruhe, Germany PV4071
T1 sequence (P33981 1-857): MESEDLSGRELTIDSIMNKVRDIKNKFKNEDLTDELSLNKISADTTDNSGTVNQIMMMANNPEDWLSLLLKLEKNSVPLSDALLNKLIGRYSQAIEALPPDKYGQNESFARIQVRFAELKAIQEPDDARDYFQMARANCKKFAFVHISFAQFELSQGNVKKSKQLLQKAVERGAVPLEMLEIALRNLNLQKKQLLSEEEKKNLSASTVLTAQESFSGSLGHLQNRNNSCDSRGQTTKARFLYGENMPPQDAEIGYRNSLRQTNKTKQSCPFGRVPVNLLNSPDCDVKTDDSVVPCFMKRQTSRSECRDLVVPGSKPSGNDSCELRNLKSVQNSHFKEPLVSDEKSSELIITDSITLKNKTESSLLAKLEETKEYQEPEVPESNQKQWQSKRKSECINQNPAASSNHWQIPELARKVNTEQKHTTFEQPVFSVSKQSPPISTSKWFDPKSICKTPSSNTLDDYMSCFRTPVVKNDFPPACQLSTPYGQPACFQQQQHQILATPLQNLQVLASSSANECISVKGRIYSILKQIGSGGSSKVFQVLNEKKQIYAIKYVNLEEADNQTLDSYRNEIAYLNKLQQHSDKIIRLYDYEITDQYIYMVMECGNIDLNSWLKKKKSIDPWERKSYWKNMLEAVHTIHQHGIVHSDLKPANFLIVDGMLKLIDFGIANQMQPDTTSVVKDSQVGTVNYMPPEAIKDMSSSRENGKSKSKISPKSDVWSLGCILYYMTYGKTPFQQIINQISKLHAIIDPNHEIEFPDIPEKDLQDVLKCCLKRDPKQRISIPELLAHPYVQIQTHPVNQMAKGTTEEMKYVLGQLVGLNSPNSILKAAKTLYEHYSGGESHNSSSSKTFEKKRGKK
Test: Mps-1 kinase assay (TR-FRET)
Type: biochemical
Conditions: Mps1 IC50 [nM], 10 μM ATP, 1 μM peptide substrate, 60 min at 22° C.
Outline: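 Inhibition of Mps-1 (N-terminal GST fusion, full length) toward a biotinylated peptide is read as Eu-to-XLent TR-FRET. Enzyme level, around 1 nM final, follows lot activity.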

Row | Compound | IC50 [nM]
1 | OCc1cccc(-c2cc(NCCC(F)(F)F)c3ncc(-c4ccc(C(=S)NC5CC5)cc4)n3n2)c1 [Example 46, N-cyclopropyl-4-{6-[3-(hydroxymethyl)phenyl]-8-[(3,3,3-trifluoropropyl)amino]imidazo[1,2-b]pyridazin-3-yl}benzenecarbothioamide] | 1.1
2 | OCc1ccccc1-c1cc(NCCC(F)(F)F)c2ncc(-c3ccc(C(=S)NC4CC4)cc3)n2n1 [Example 44, N-cyclopropyl-4-{6-[2-(hydroxymethyl)phenyl]-8-[(3,3,3-trifluoropropyl)amino]imidazo[1,2-b]pyridazin-3-yl}benzenecarbothioamide] | 2.6
3 | CNC(=O)c1ccc(-c2cnc3c(NCCOC)cc(Oc4ccc(OC)c(F)c4)nn23)cc1C [Example 586, 4-{6-(3-fluoro-4-methoxyphenoxy)-8-[(2-methoxyethyl)a-mino]imidazo[1,2-b]pyridazin-3-yl]-N,2-dimethylbenzamide] | 1
4 | Cc1cc(-c2cnc3c(NCC(C)C)cc(-c4ccn[nH]4)nn23)ccc1C(=O)NC1CC1 [Example 195, N-cyclopropyl-2-methyl-4-{8-[(2-methylpropyl)amino]-6-(1H-pyrazol-5-yl)imidazo[1,2-b]pyridazin-3-yl}benzamide] | 3.2
5 | Cc1cc(-c2cnc3c(NCC(C)(C)O)cc(Nc4ccc(CCO)cc4)nn23)ccc1C(=O)NC1CC1 [Example 386, N-cyclopropyl-4-(6-{[4-(2-hydroxyethyl)phenyl]amino}-8-[(2-hydroxy-2-methylpropyl)amino]imidazo[1,2-b]pyridazin-3-yl)-2-methylbenzamide] | 1.5
6 | Cc1cc(-c2cnc3c(NCC(C)(C)O)cc(Nc4ccc(Cl)c(F)c4)nn23)ccc1C(=O)NC1CC1 [Example 401, 4-{6-[(4-chloro-3-fluorophenyl)amino]-8-[(2-hydroxy-2-methylpropyl)amino]imidazo[1,2-b]pyridazin-3-yl}-N-cyclopropyl-2-methylbenzamide] | 1
7 | Cc1cc(-c2cnc3c(NCC(O)C(F)(F)F)cc(Cl)nn23)ccc1C(=O)NC1CC1 (racemic) [Example 205, (RS)-4-{6-Chloro-8-[(3,3,3-trifluoro-2-hydroxypropyl)amino]imidazo[1,2-b]pyridazin-3-yl}-N-cyclopropyl-2-methylbenzamide] | 72.7
8 | COc1cc(C(=O)NC2CC2)ccc1-c1cnc2c(NCC(C)(C)O)cc(-c3ccc(F)cc3)nn12 [Example 49, N-cyclopropyl-4-{6-(4-fluorophenyl)-8-[(2-hydroxy-2-methylpropyl)amino]imidazo[1,2-b]pyridazin-3-yl}-3-methoxybenzamide] | 11.9
9 | Cc1cc(-c2cnc3c(NCCN(C)C)cc(Oc4ccc(Cl)cc4)nn23)ccc1C(=O)NC1CC1 [Example 523, 4-[6-(4-chlorophenoxy)-8-{[2-(dimethylamino)ethyl]amino}imidazo[1,2-b]pyridazin-3-yl]-N-cyclopropyl-2-methylbenzamide] | 0.7
10 | COC(C)(C)CNc1cc(-c2ccnn2C)nn2c(-c3ccc(C(=O)NC4CC4)c(C)c3)cnc12 [Example 39, N-cyclopropyl-4-{8-[(2-methoxy-2-methylpropyl)amino]-6-(1-methyl-1H-pyrazol-5-yl)imidazo[1,2-b]pyridazin-3-yl}-2-methylbenzamide] | 3.7
11 | Cc1cc(-c2cnc3c(NCC(C)(C)O)cc(Oc4ccnn4C)nn23)ccc1C(=O)NC1CC1 [Example 319, N-cyclopropyl-4-{8-[(2-hydroxy-2-methylpropyl)amino]-6-[(1-methyl-1H-pyrazol-5-yl)oxy]imidazo[1,2-b]pyridazin-3-yl}-2-methylbenzamide] | 121
12 | Cc1cc(-c2cnc3c(NCC(C)(C)O)cc(Sc4cccc(F)c4)nn23)ccc1C(=O)NC1CC1 [Example 89, N-cyclopropyl-4-{6-[(3-fluorophenyl)sulfanyl]-8-[(2-hydroxy-2-methylpropyl)amino]imidazo[1,2-b]pyridazin-3-yl}-2-methylbenzamide] | 0.2
13 | CC(C)CNc1cc(-c2ccc(C(F)(F)F)cc2)nn2c(-c3ccc(C(=O)NC4CC4)cc3)cnc12 [Example 123, N-cyclopropyl-4-{8-[(2-methylpropyl)amino]-6-[4-(trifluoromethyl)phenyl]imidazo[1,2-b]pyridazin-3-yl}benzamide] | 7.6
14 | Cc1cc(-c2cnc3c(NCCC(F)(F)F)cc(Nc4cccc(C(C)C)c4)nn23)ccc1C(=O)NC1CC1 [Example 433, N-cyclopropyl-2-methyl-4-(6-{[3-(propan-2-yl)phenyl]amino}-8-[(3,3,3-trifluoropropyl)amino]imidazo[1,2-b]pyridazin-3-yl)benzamide] | 0.6
15 | Cc1cc(-c2cnc3c(NCC(C)(C)O)cc(Oc4ccc(OC(C)C)cc4)nn23)ccc1C(=O)NC1CC1 [Example 256, N-cyclopropyl-4-{8-[(2-hydroxy-2-methylpropyl)amino]-6-(4-isopropoxyphenoxy)imidazo[1,2-b]pyridazin-3-yl}-2-methylbenzamide] | 0.2
16 | CC(C)CNc1cc(-c2ccccc2O)nn2c(-c3ccc(C(=O)NC4CC4)cc3)cnc12 [Example 139, N-cyclopropyl-4-{6-(2-hydroxyphenyl)-8-[(2-methylpropyl)amino]imidazo[1,2-b]pyridazin-3-yl}benzamide] | 3.7
17 | CNC(=O)c1ccc(-c2cnc3c(NCCOC)cc(Oc4cc(F)ccc4C)nn23)cc1C [Example 585, 4-{6-(5-fluoro-2-methylphenoxy)-8-[(2-methoxyethyl)a-mino]imidazo[1,2-b]pyridazin-3-yl}-N,2-dimethylbenzamide] | 5.4
18 | COc1ccccc1Sc1cc(NCC(C)(C)O)c2ncc(-c3ccc(C(=O)NC4CC4)c(C)c3)n2n1 [Example 73B, N-cyclopropyl-4-{8-[(2-hydroxy-2-methylpropyl)amino]-6-[(2-methoxyphenyl)sulfanyl]imidazo[1,2-b]pyridazin-3-yl}-2-methylbenzamide] | 3.8
19 | CC(=O)NCCCNc1cc(Oc2cccc(F)c2)nn2c(-c3ccc(C(=O)NC4CC4)c(C)c3)cnc12 [Example 509, 4-[8-{[3-(acetylamino)propyl]amino}-6-(3-fluorophenoxy)imidazo[1,2-b]pyridazin-3-yl]-N-cyclopropyl-2-methyl-benzamide] | 0.1
20 | COc1ccc(C)c(Nc2cc(NCCC(F)(F)F)c3ncc(-c4ccc(C(=O)NC5CC5)c(C)c4)n3n2)c1 [Example 430, N-cyclopropyl-4-{6-[(5-methoxy-2-methylphenyl)amino]-8-[(3,3,3-trifluoropropyl)amino]imidazo[1,2-b]pyridazin-3-yl}-2-methylbenzamide] | 0.3
21 | COc1cc(C(=O)NC2CC2)ccc1-c1cnc2c(NCCC(F)(F)F)cc(-c3ccccc3CO)nn12 [Example 54, N-cyclopropyl-4-{6-[2-(hydroxymethyl)phenyl]-8-[(3,3,3-trifluoropropyl)amino]imidazo[1,2-b]pyridazin-3-yl}-3-methoxybenzamide] | 7.6
22 | CNC(=O)c1ccc(-c2cnc3c(NCCOC)cc(Oc4ccc(OC)cc4F)nn23)cc1C [Example 584, 4-{6-(2-fluoro-4-methoxyphenoxy)-8-[(2-methoxyethyl)a-mino]imidazo[1,2-b]pyridazin-3-yl}-N,2-dimethylbenzamide] | 2.3
